The numbers were not newly measured in the CATMoS acute toxicity set (Mansouri et al. 2021), which cites them from elsewhere.

As usually defined, the LD50 is the dose at which mortality reaches 50%.

Where “and” joins values, the source holds several entries; their conditions need not be identical. Equal entries are not always repeated.

The nature of this data set: rat acute oral toxicity. Particulars: in vivo.
For the compound `CN1CCCCC1CCN1c2ccccc2Sc2ccc(Br)cc21` (stereo unspecified), the LD50 was 900 mg/kg. As to `CC(C)=NOC(=O)Nc1ccccc1`, the LD50 was 1540 mg/kg. For `CCCCCCCCCCCCCCCCCC1=NCCN1`, the LD50 is 3170 mg/kg and 4600 mg/kg and 1970 mg/kg.

`Clc1nc(Cl)c(Cl)c(Cl)c1Cl`: the LD50 is 435 mg/kg. With `O=S1OCC2C(CO1)C1(Cl)C(Cl)=C(Cl)C2(Cl)C1(Cl)Cl` (stereo unspecified), the LD50 is 240 mg/kg. `Cc1cc(Cl)ccc1N=CN(C)C`: the LD50 is 160 mg/kg. In the case of `CC(C)=CCN(CC=C(C)C)CCC(C)(C(N)=O)c1cccc2ccccc12` (stereo unspecified), the LD50 is 353 mg/kg. Regarding `COCCl`, the LD50 is 500 mg/kg. On to `O=C(CF)NNc1ccccc1`, for which the LD50 is 9.1 mg/kg.

On to `Cn1c(=O)c2c(ncn2CC(=O)O)n(C)c1=O`, for which the LD50 was 900 mg/kg. `O=C(Oc1ccccc1)c1ccccc1O`: the 50% lethal dose (LD50) is 3000 mg/kg. Consider `Nc1ccc2c(c1)C1CCCCC1N2` (stereo unspecified), for which the LD50 was 275 mg/kg. Regarding `CCc1c(C)nc2c(C)cccn2c1=O`, the LD50 is 820 mg/kg. Regarding `CCCCCCCCCCCCCOCCOCCOCCOCCOCCOCCO`, the LD50 was 1400 mg/kg. For `CCO/N=C(\OC(=O)c1ccccc1)c1c(OC)ccc(Cl)c1OC`, the 50% lethal dose (LD50) was 15000 mg/kg. Turning to `CN(C)c1ccc(N=NS(=O)(=O)O)cc1`, the LD50 is 60 mg/kg.

For `OC1(c2ccc(Cl)c(Cl)c2)c2ccccc2C2=NCCN21` (stereo unspecified), the LD50 was 353 mg/kg. As to `C=CCCCCCCCCC(=O)OC`, the LD50 was 1560 mg/kg. Take `CC(=O)N(OCCN(C)C)C12CC3CC(CC(C3)C1)C2`: the LD50 was 630 mg/kg. As for `CC(=O)Nc1ccc(N=NN(C)C)cc1`, the LD50 is 510 mg/kg. Turning to `O=C=Nc1ccccc1C(F)(F)F`, the LD50 was 7000 mg/kg.

For the compound `CNCC12CCC(c3ccccc31)c1ccccc12`, the LD50 was 700 mg/kg and 600 mg/kg. For the compound `OCCCC(O)CO` (stereo unspecified), the LD50 is 7800 mg/kg. As to `O=C(O)CN(CCO)CCN(CC(=O)O)CC(=O)O`, the LD50 was 10000 mg/kg. Turning to `Nc1ccc(Br)cc1`, the LD50 was 456 mg/kg.

In the case of `COc1cc(C=CC(=O)N2CCN(CC(=O)N3CCCC3)CC2)cc(OC)c1OC`, the LD50 was 1310 mg/kg. Consider `COC(=O)c1ccc2nc(C(F)(F)F)[nH]c2c1`, for which the LD50 is 22.3 mg/kg.

In the case of `CCCCOc1ccccc1NC(C)=O`, the LD50 was 2900 mg/kg. Regarding `CCOC(=O)CC(CC(=O)OCC)(OC(C)=O)C(=O)OCC`, the LD50 was 7000 mg/kg.

Take `Cc1ccc(CCOC(=O)c2cccnc2)cc1`: the LD50 was 3500 mg/kg. For the compound `CC1CNCCN1` (stereo unspecified), the 50% lethal dose (LD50) is 2030 mg/kg.

With `CCCCCCCCCCCCSC#N`, the LD50 was 1250 mg/kg. With `CCN(N=O)C(C)(C)C`, the LD50 was 1600 mg/kg. On to `Cc1c(-c2ccccc2)oc2c(C(=O)OCCN3CCCCC3)cccc2c1=O`, for which the LD50 is 1440 mg/kg and 1040 mg/kg. Consider `O=C(Nc1nc(-c2ccccc2)cs1)OCC(Cl)(Cl)Cl`, for which the LD50 is 550 mg/kg. For `COCOC`, the median lethal dose (LD50) is 6420 mg/kg.

`Clc1nc(Cl)nc(Nc2ccccc2Cl)n1`: the LD50 was 2700 mg/kg. In the case of `OC(CCl)CN1CCCN(CC(O)CCl)c2ccccc21` (stereo unspecified), the LD50 was 750 mg/kg. As to `CC(O)CN(CC(C)O)CC(C)O` (stereo unspecified), the LD50 is 4730 mg/kg. For the compound `S=c1[nH]c2ccccc2s1`, the LD50 was 631 mg/kg. `CN(Sc1cc(Cl)ccc1Cl)C(=O)Oc1cccc2c1OC(C)(C)C2`: the LD50 was 25 mg/kg. Consider `COP(=O)(OC)SCn1c(=O)oc2cc(Cl)cnc21`, for which the LD50 is 1180 mg/kg. For the compound `CCOP(=S)(OCC)Oc1ccc(N)cc1`, the LD50 was 450 mg/kg. In the case of `NCCc1ccc(O)c(O)c1`, the LD50 is 2860 mg/kg. Take `CCOC(=O)C=CN(C)C`: the 50% lethal dose (LD50) is 4500 mg/kg.

As for `CC1=CCC2CC1C2(C)C` (stereo unspecified), the LD50 is 3700 mg/kg.

`c1cc(OCC2CO2)cc(OCC2CO2)c1` (stereo unspecified): the LD50 was 2570 mg/kg. Turning to `CCCCOC(=O)c1ccccc1Nc1cccc(C(F)(F)F)c1`, the LD50 was 510 mg/kg. For `CC(=C\c1ccccc1)/C=C1/SC(=S)N(CC(=O)O)C1=O`, the LD50 was 5.3 mg/kg. As for `CC(C=O)c1ccccc1` (stereo unspecified), the LD50 was 2800 mg/kg. As to `CNc1nc(C)nc(OC)n1`, the LD50 is 394 mg/kg. For the compound `CCB(CC)CC`, the median lethal dose (LD50) was 235 mg/kg. With `CCN(CC(=O)O)S(=O)(=O)C(F)(F)C(F)(F)C(F)(F)C(F)(F)C(F)(F)C(F)(F)C(F)(F)C(F)(F)F`, the LD50 is 619 mg/kg. Regarding `CC(=NNCCC1CCCCC1)C(=O)O`, the LD50 was 520 mg/kg. Regarding `CC(=O)C1=C(O)[C@@H]2[C@H]3c4c[nH]c5cccc(c45)C[C@H]3C(C)(C)N2C1=O`, the LD50 was 36 mg/kg. Consider `CCCOC(=O)Nc1ccco1`, for which the LD50 is 1600 mg/kg.

As to `ClC1=C(Cl)[C@]2(Cl)[C@H]3[C@H]([C@@H]4O[C@]4(Cl)[C@@H]3Cl)[C@@]1(Cl)C2(Cl)Cl` (racemic), the LD50 was 457 mg/kg. Regarding `C=CCN1CCc2nc(N)sc2CC1`, the LD50 is 403 mg/kg.

Consider `N#Cc1cccc(C#N)c1`, for which the LD50 was 860 mg/kg. With `CC(C)N(N=O)C(C)C`, the LD50 was 850 mg/kg. With `C=C1C[C@@H]1C[C@H](N)C(=O)O`, the LD50 is 98 mg/kg.

`CC(Cc1ccc(O)cc1)NCC(O)c1cc(O)cc(O)c1` (stereo unspecified): the LD50 was 1600 mg/kg.

In the case of `C=CC(=O)OCCOCC`, the LD50 was 1070 mg/kg. Consider `O=C(O)[C@@H]1CS[C@H](c2ccccc2O)N1C(=O)CCS`, for which the LD50 is 8290 mg/kg. With `N#CC(CCN1CCC(C(N)=O)(N2CCCCC2)CC1)(c1ccccc1)c1ccccc1`, the LD50 is 320 mg/kg. Consider `C=CS(C)(=O)=O`, for which the LD50 is 570 mg/kg.
